Assay results from PMC4019751 (Bioorganic & medicinal chemistry letters, 2014).

Assays:
human sEH = target: T1, human sEH (Homo sapiens, UniProt P34913); assay: FRET competitive displacement assay; type: binding; settings: for residence time: read-out: t1/2 (residence time on the enzyme)
T1 sequence (P34913 1-555): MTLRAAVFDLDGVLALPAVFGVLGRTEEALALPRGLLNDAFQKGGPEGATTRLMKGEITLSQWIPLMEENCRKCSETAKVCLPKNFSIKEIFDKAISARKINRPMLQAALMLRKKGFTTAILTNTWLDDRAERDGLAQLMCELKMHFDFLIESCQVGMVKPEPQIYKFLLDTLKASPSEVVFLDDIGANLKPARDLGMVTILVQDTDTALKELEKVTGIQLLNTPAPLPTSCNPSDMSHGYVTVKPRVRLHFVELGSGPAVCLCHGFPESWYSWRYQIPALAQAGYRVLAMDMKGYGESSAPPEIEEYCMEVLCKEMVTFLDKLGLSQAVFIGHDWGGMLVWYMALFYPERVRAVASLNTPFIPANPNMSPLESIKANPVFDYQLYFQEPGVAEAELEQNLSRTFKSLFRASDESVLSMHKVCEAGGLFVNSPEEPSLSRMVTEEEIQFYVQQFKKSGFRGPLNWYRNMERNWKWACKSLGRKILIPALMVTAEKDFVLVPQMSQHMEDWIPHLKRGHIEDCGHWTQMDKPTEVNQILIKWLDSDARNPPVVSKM

[1] = target: T2, recombinant purified human sEH (Homo sapiens, UniProt P34913); assay: sEH inhibition, kinetic fluorescent assay with CMNPC substrate; type: biochemical
T2 sequence (P34913 1-555): T1 sequence (P34913 1-555)

| SMILES | koff (human sEH) [s⁻¹] | residence time (human sEH) [min] | inhibition potency in words [1] |
| --- | --- | --- | --- |
| O=C(NCCCCCCNC(=O)NCC12CC3CC(CC(C3)C1)C2)NCC12CC3CC(CC(C3)C1)C2 [1c] | 0.00116 | 10 |  |
| O=C(NCC12CC3CC(CC(C3)C1)C2)Nc1ccc(NC(=O)NCC23CC4CC(CC(C4)C2)C3)cc1 [1e] |  |  | poor potency |
| O=C(NCC1CCN(C(=O)NCC23CC4CC(CC(C4)C2)C3)CC1)NCC12CC3CC(CC(C3)C1)C2 [1f] |  |  | poor potency |
| CC(NC(=O)NCCCCNC(=O)NC(C)C12CC3CC(CC(C3)C1)C2)C12CC3CC(CC(C3)C1)C2 (centres unmarked) [2b] | 0.00142 | 8 |  |
| O=C(NCCCCCCCCNC(=O)NC1C2CC3CC(C2)CC1C3)NC1C2CC3CC(C2)CC1C3 (centres unmarked) [3d] | 0.00461 | 2.5 |  |
